# Patent US11807835B2, “Detergent compositions containing a stabilized enzyme by phosphonates” (ECOLAB USA INC., priority 2016, dated 2023)
# Assays:
# [1] = tested on: protease; test: Protease activity retention in detergent use solution (4000 ppm, 5 GPG water; peptidyl substrate, glycine buffer pH 9.0); format: biochemical; settings: for Relative Protease Enzyme Activity: use solution at 120° F.
# Outline: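 Detergent use solutions at 4000 ppm in 5 GPG water were held at 120° F with stirring and sampled up to 4 h, with aliquots flash-frozen. Activity was read on a peptidyl substrate in glycine buffer pH 9.0 by absorbance against a calibration curve. Retention is % activity relative to the t=0 sample.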
# [2] = tested on: lipase; test: Lipase activity retention in detergent use solution (4000 ppm, 5 GPG water; p-nitrophenyl valerate, TRIS buffer pH 8.0); format: biochemical; settings: for Relative Lipase Enzyme Activity in a Use Solution of the All Ash Detergent Composition: Table 6F, 120º F.; for Relative Lipase Enzyme Activity: base formula
# Outline: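 Lipase stability was measured in a detergent use solution under conditions mimicking presoak or manual warewash, with stirring in a water bath. Aliquots were taken over time and flash-frozen. Thawed samples were diluted in TRIS buffer at pH 8.0 and assayed with p-nitrophenyl valerate as substrate on a plate reader. Activity is reported as % retained relative to the time=0 sample.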
substance,measurement,setting,value
Diglycolamine phosphonate [DGAP],Relative Protease Enzyme Activity,"[1]; All Ash formula, phosphonate 0.3 wt-%, time 0 min",100.00%
same,Relative Protease Enzyme Activity,"[1]; All Ash formula, phosphonate 0.3 wt-%, time 5 min",81.79%
same,Relative Protease Enzyme Activity,"[1]; All Ash formula, phosphonate 0.3 wt-%, time 10 min",75.39%
same,Relative Protease Enzyme Activity,"[1]; All Ash formula, phosphonate 0.3 wt-%, time 20 min",59.47%
same,Relative Protease Enzyme Activity,"[1]; All Ash formula, phosphonate 0.3 wt-%, time 40 min",39.98%
same,Relative Protease Enzyme Activity,"[1]; All Ash formula, phosphonate 0.3 wt-%, time 60 min",27.49%
same,Relative Protease Enzyme Activity,"[1]; All Ash formula, phosphonate 0.3 wt-%, time 90 min",18.95%
same,Relative Protease Enzyme Activity,"[1]; All Ash formula, phosphonate 0.3 wt-%, time 120 min",12.48%
same,Relative Protease Enzyme Activity,"[1]; All Ash formula, phosphonate 0.3 wt-%, time 150 min",10.56%
same,Relative Protease Enzyme Activity,"[1]; All Ash formula, phosphonate 0.3 wt-%, time 180 min",9.69%
same,Relative Protease Enzyme Activity,"[1]; All Ash formula, phosphonate 0.3 wt-%, time 210 min",7.02%
same,Relative Protease Enzyme Activity,"[1]; All Ash formula, phosphonate 0.3 wt-%, time 240 min",6.34%
same,protease stability in all ash formula,"[1]; all ash formula, versus same composition with PBTC or HEDP without amine(s), FIG. 2D",more stable
same,Relative Protease Enzyme Activity,"[1]; base formula, phosphonate 0.3 wt-%, lower half of Table 4A, time 5",98.30%
same,Relative Protease Enzyme Activity,"[1]; base formula, phosphonate 0.3 wt-%, lower half of Table 4A, time 20",91.75%
same,Relative Protease Enzyme Activity,"[1]; base formula, phosphonate 0.3 wt-%, lower half of Table 4A, time 90",84.87%
same,Relative Protease Enzyme Activity,"[1]; base formula, phosphonate 0.3 wt-%, lower half of Table 4A, time 120",82.96%
same,Relative Protease Enzyme Activity,"[1]; base formula, phosphonate 0.3 wt-%, lower half of Table 4A, time 150, unit not given",82.44%
same,Relative Protease Enzyme Activity,"[1]; base formula, phosphonate 0.3 wt-%, lower half of Table 4A, time 210",76.14%
same,Relative Protease Enzyme Activity,"[1]; base formula, phosphonate 0.3 wt-%, lower half of Table 4A, time '0'",100.00%
same,Relative Protease Enzyme Activity,"[1]; base formula, phosphonate 0.3 wt-%, lower half of Table 4A, time '40'",89.16%
same,Relative Protease Enzyme Activity,"[1]; base formula, phosphonate 0.3 wt-%, lower half of Table 4A, time 'Blank'",100.00%
same,Relative Protease Enzyme Activity,"[1]; base formula, phosphonate 0.3 wt-%, lower half of Table 4A, time row printed '10'",92.44%
same,Relative Protease Enzyme Activity,"[1]; base formula, phosphonate 0.3 wt-%, lower half of Table 4A, time row printed '60'",79.16%
same,Relative Protease Enzyme Activity,"[1]; base formula, phosphonate 0.3 wt-%, lower half of Table 4A, time row printed '180'",75.52%
same,Relative Protease Enzyme Activity,"[1]; base formula, phosphonate 0.6 wt-%, time 0 min",100.00%
same,Relative Protease Enzyme Activity,"[1]; base formula, phosphonate 0.6 wt-%, time 5 min",105.28%
same,Relative Protease Enzyme Activity,"[1]; base formula, phosphonate 0.6 wt-%, time 10 min",100.03%
same,Relative Protease Enzyme Activity,"[1]; base formula, phosphonate 0.6 wt-%, time 20 min",101.24%
same,Relative Protease Enzyme Activity,"[1]; base formula, phosphonate 0.6 wt-%, time 40 min",100.88%
same,Relative Protease Enzyme Activity,"[1]; base formula, phosphonate 0.6 wt-%, time 90 min",98.76%
same,Relative Protease Enzyme Activity,"[1]; base formula, phosphonate 0.6 wt-%, time 120 min",93.04%
same,Relative Protease Enzyme Activity,"[1]; base formula, phosphonate 0.6 wt-%, time 150 min",88.27%
same,Relative Protease Enzyme Activity,"[1]; base formula, phosphonate 0.6 wt-%, time 180 min",86.23%
same,Relative Protease Enzyme Activity,"[1]; base formula, phosphonate 0.6 wt-%, time 210 min",88.24%
same,Relative Protease Enzyme Activity,"[1]; base formula, phosphonate 0.6 wt-%, time 240 min",89.57%
same,Relative Protease Enzyme Activity,"[1]; base formula, phosphonate at 0.1% elemental phosphorus, time 0 min",100.00%
same,Relative Protease Enzyme Activity,"[1]; base formula, phosphonate at 0.1% elemental phosphorus, time 5 min",98.29%
same,Relative Protease Enzyme Activity,"[1]; base formula, phosphonate at 0.1% elemental phosphorus, time 10 min",103.47%
same,Relative Protease Enzyme Activity,"[1]; base formula, phosphonate at 0.1% elemental phosphorus, time 20 min",101.47%
same,Relative Protease Enzyme Activity,"[1]; base formula, phosphonate at 0.1% elemental phosphorus, time 40 min",88.60%
same,Relative Protease Enzyme Activity,"[1]; base formula, phosphonate at 0.1% elemental phosphorus, time 60 min",86.17%
same,Relative Protease Enzyme Activity,"[1]; base formula, phosphonate at 0.1% elemental phosphorus, time 90 min",85.84%
same,Relative Protease Enzyme Activity,"[1]; base formula, phosphonate at 0.1% elemental phosphorus, time 120 min",83.06%
same,Relative Protease Enzyme Activity,"[1]; base formula, phosphonate at 0.1% elemental phosphorus, time 150 min",81.53%
same,Relative Protease Enzyme Activity,"[1]; base formula, phosphonate at 0.1% elemental phosphorus, time 180 min",76.41%
same,Relative Protease Enzyme Activity,"[1]; base formula, phosphonate at 0.1% elemental phosphorus, time 210 min",74.23%
same,Relative Protease Enzyme Activity,"[1]; base formula, phosphonate at 0.1% elemental phosphorus, time 240 min",72.01%
same,Relative Lipase Enzyme Activity in a Use Solution of the All Ash Detergent Composition,"[2]; all ash formula, phosphonate 0.3 wt-%, time 0 min",100.00%
same,Relative Lipase Enzyme Activity in a Use Solution of the All Ash Detergent Composition,"[2]; all ash formula, phosphonate 0.3 wt-%, time 5 min",87.31%
same,Relative Lipase Enzyme Activity in a Use Solution of the All Ash Detergent Composition,"[2]; all ash formula, phosphonate 0.3 wt-%, time 10 min",76.38%
same,Relative Lipase Enzyme Activity in a Use Solution of the All Ash Detergent Composition,"[2]; all ash formula, phosphonate 0.3 wt-%, time 20 min",57.74%
same,Relative Lipase Enzyme Activity in a Use Solution of the All Ash Detergent Composition,"[2]; all ash formula, phosphonate 0.3 wt-%, time 40 min",40.00%
same,Relative Lipase Enzyme Activity in a Use Solution of the All Ash Detergent Composition,"[2]; all ash formula, phosphonate 0.3 wt-%, time 60 min",33.56%
same,Relative Lipase Enzyme Activity in a Use Solution of the All Ash Detergent Composition,"[2]; all ash formula, phosphonate 0.3 wt-%, time 90 min",25.59%
same,Relative Lipase Enzyme Activity in a Use Solution of the All Ash Detergent Composition,"[2]; all ash formula, phosphonate 0.3 wt-%, time 120 min",21.03%
same,Relative Lipase Enzyme Activity in a Use Solution of the All Ash Detergent Composition,"[2]; all ash formula, phosphonate 0.3 wt-%, time 150 min",17.27%
same,Relative Lipase Enzyme Activity in a Use Solution of the All Ash Detergent Composition,"[2]; all ash formula, phosphonate 0.3 wt-%, time 180 min",14.06%
same,Relative Lipase Enzyme Activity in a Use Solution of the All Ash Detergent Composition,"[2]; all ash formula, phosphonate 0.3 wt-%, time 210 min",12.18%
same,Relative Lipase Enzyme Activity in a Use Solution of the All Ash Detergent Composition,"[2]; all ash formula, phosphonate 0.3 wt-%, time 240 min",10.79%
same,lipase stability in all ash formula,"[2]; all ash formula, versus same composition with PBTC or HEDP without amine(s), FIG. 6G",more stable
same,Relative Lipase Enzyme Activity,"[2]; phosphonate 0.3 wt-%, use solution at 120° F., time 0 min",100.00%
same,Relative Lipase Enzyme Activity,"[2]; phosphonate 0.3 wt-%, use solution at 120° F., time 5 min",83.54%
same,Relative Lipase Enzyme Activity,"[2]; phosphonate 0.3 wt-%, use solution at 120° F., time 10 min",88.25%
same,Relative Lipase Enzyme Activity,"[2]; phosphonate 0.3 wt-%, use solution at 120° F., time 20 min",77.15%
same,Relative Lipase Enzyme Activity,"[2]; phosphonate 0.3 wt-%, use solution at 120° F., time 40 min",62.99%
same,Relative Lipase Enzyme Activity,"[2]; phosphonate 0.3 wt-%, use solution at 120° F., time 60 min",52.84%
same,Relative Lipase Enzyme Activity,"[2]; phosphonate 0.3 wt-%, use solution at 120° F., time 90 min",43.46%
same,Relative Lipase Enzyme Activity,"[2]; phosphonate 0.3 wt-%, use solution at 120° F., time 120 min",35.40%
same,Relative Lipase Enzyme Activity,"[2]; phosphonate 0.3 wt-%, use solution at 120° F., time 150 min",31.10%
same,Relative Lipase Enzyme Activity,"[2]; phosphonate 0.3 wt-%, use solution at 120° F., time 180 min",22.42%
same,Relative Lipase Enzyme Activity,"[2]; phosphonate 0.3 wt-%, use solution at 120° F., time 210 min",24.78%
same,Relative Lipase Enzyme Activity,"[2]; phosphonate 0.3 wt-%, use solution at 120° F., time 240 min",22.08%
same,Relative Lipase Enzyme Activity,"[2]; phosphonate 0.6 wt-%, use solution at 120º F., time 0 min",100.00%
same,Relative Lipase Enzyme Activity,"[2]; phosphonate 0.6 wt-%, use solution at 120º F., time 5 min",95.36%
same,Relative Lipase Enzyme Activity,"[2]; phosphonate 0.6 wt-%, use solution at 120º F., time 10 min",100.58%
same,Relative Lipase Enzyme Activity,"[2]; phosphonate 0.6 wt-%, use solution at 120º F., time 20 min",94.94%
same,Relative Lipase Enzyme Activity,"[2]; phosphonate 0.6 wt-%, use solution at 120º F., time 40 min",93.85%
same,Relative Lipase Enzyme Activity,"[2]; phosphonate 0.6 wt-%, use solution at 120º F., time 60 min",86.18%
same,Relative Lipase Enzyme Activity,"[2]; phosphonate 0.6 wt-%, use solution at 120º F., time 90 min",76.99%
same,Relative Lipase Enzyme Activity,"[2]; phosphonate 0.6 wt-%, use solution at 120º F., time 120 min",71.87%
same,Relative Lipase Enzyme Activity,"[2]; phosphonate 0.6 wt-%, use solution at 120º F., time 150 min",72.77%
same,Relative Lipase Enzyme Activity,"[2]; phosphonate 0.6 wt-%, use solution at 120º F., time 180 min",64.17%
same,Relative Lipase Enzyme Activity,"[2]; phosphonate 0.6 wt-%, use solution at 120º F., time 210 min",63.68%
same,Relative Lipase Enzyme Activity,"[2]; phosphonate 0.6 wt-%, use solution at 120º F., time 240 min",56.85%
same,Relative Lipase Enzyme Activity,"[2]; phosphonate at 0.1% elemental phosphorus, at 120º F. or at room temperature (as titled), time 0 min",100.00%
same,Relative Lipase Enzyme Activity,"[2]; phosphonate at 0.1% elemental phosphorus, at 120º F. or at room temperature (as titled), time 5 min",88.13%
same,Relative Lipase Enzyme Activity,"[2]; phosphonate at 0.1% elemental phosphorus, at 120º F. or at room temperature (as titled), time 10 min",80.42%
same,Relative Lipase Enzyme Activity,"[2]; phosphonate at 0.1% elemental phosphorus, at 120º F. or at room temperature (as titled), time 20 min",74.76%
same,Relative Lipase Enzyme Activity,"[2]; phosphonate at 0.1% elemental phosphorus, at 120º F. or at room temperature (as titled), time 40 min",49.43%
same,Relative Lipase Enzyme Activity,"[2]; phosphonate at 0.1% elemental phosphorus, at 120º F. or at room temperature (as titled), time 60 min",46.05%
same,Relative Lipase Enzyme Activity,"[2]; phosphonate at 0.1% elemental phosphorus, at 120º F. or at room temperature (as titled), time 90 min",39.53%
same,Relative Lipase Enzyme Activity,"[2]; phosphonate at 0.1% elemental phosphorus, at 120º F. or at room temperature (as titled), time 120 min",34.69%
same,Relative Lipase Enzyme Activity,"[2]; phosphonate at 0.1% elemental phosphorus, at 120º F. or at room temperature (as titled), time 150 min",28.57%
same,Relative Lipase Enzyme Activity,"[2]; phosphonate at 0.1% elemental phosphorus, at 120º F. or at room temperature (as titled), time 180 min",25.49%
same,Relative Lipase Enzyme Activity,"[2]; phosphonate at 0.1% elemental phosphorus, at 120º F. or at room temperature (as titled), time 210 min",24.18%
same,Relative Lipase Enzyme Activity,"[2]; phosphonate at 0.1% elemental phosphorus, at 120º F. or at room temperature (as titled), time 240 min",22.78%
